Results reported in patent US20100303916A1, “ENHANCED DRUG DELIVERY WITH ORIENTABLE PARTICLES” (THE GOVERNORS OF THE UNIVERSITY OF ALBERTA, priority 2007, published 2010).

Experiment: Aerosol particle size distribution and number concentration by SEM
Type: physicochemical
Conditions: mean ± SD, n = 9 SEM images
Protocol: The particle size distribution and number concentration of the CA and CA/magnetite aerosols were determined from samples taken from the delivery apparatus used for the aerosol deposition experiments. Suspensions of CA and CA/magnetite were nebulized, and drawn by vacuum pump along with ambient, drying air at 10 l/min. into a large volume (˜16 1) delivery chamber for 1.5 minutes. With reference to FIG. 5, after filling the delivery chamber 40 with aerosol, valves 46, 48 connecting to the nebulizer 42 and the vacuum pump 44, respectively, were closed, and a butterfly valve 50 at the base 52 of the chamber 40 was opened. Aerosol was then sampled from the base 52 of the chamber 40 onto a 0.2 μm pore polycarbonate membrane (Isopore GTTP04700; Millipore, Billerica, Mass., not shown) for 1 hour at a flow rate of 0.21 l/min., maintained through the delivery chamber using dry, compressed air and a needle valve, and monitored using a low flow rate rotameter (FL-2010; OMEGA Canada, Laval, QC). Over the period of the sampling, the needle valve was adjusted as required to hold the flow rate to within 0.21±0.02 l/min.
After collecting aerosol from the delivery chamber, samples of the polycarbonate membranes were prepared for analysis by scanning electron microscopy (SEM) (S-2500; Hitachi, Japan). For both the CA and CA/magnetite aerosols, three pieces were cut from the membrane, from locations chosen at random, and mounted to SEM stubs using two-sided carbon adhesive tabs. These samples were sputter coated with a thin layer of gold prior to SEM analysis. Images of the samples were taken at 3000× magnification, again from locations chosen at random, and stored digitally.
For three SEM images from each of the three membrane samples, the length and diameter of each particle was manually measured using digital image analysis software (Scion Image; Scion Corporation, Frederick, Md.). The particles were assumed to lie parallel to the face of the membrane. Particle sizing rules were similar to those established for asbestos samples by Platek et al. (1992). Each particle was marked immediately after being sized so as to avoid sizing the same particle twice. Where a particle was not perfectly straight, its length was measured as the arc length along its central axis from one tip to the other. Diameter was measured perpendicular to the central axis at the midpoint along a particle's length, except in rare cases where the particle had two regions of clearly different diameter. In these latter cases, an average of the two diameters was taken. Overlapping particles were sized separately only if both ends of each particle were clearly visible.
After sizing, the volume of each particle was calculated, under the approximation that the particles were cylindrical. Volume-weighted size distributions were then fit with lognormal curves by nonlinear regression to yield a volume median length (VML), volume median diameter (VMD), and geometric standard deviations in both length and diameter (σL and σD), respectively) for each SEM image. In addition, the particle number concentration in the sampled air was calculated for each image from the volume of sampled air, and the ratio between the image area and the total area of the membrane exposed to the aerosol. The mean values of these parameters for the three different membrane samples were compared by one-way ANOVA for independent samples in order to gauge their variation over different locations on the membrane.

Q: With `O=C(O)c1cc(=O)c2c(OCC(O)COc3cccc4oc(C(=O)O)cc(=O)c34)cccc2o1` [CA, cromoglycic acid] as the compound, how does the “VMD (volume median diameter)” value (aerosol sampled from delivery chamber) read?
A: Its value is 0.34 ± 0.02 μm.

Q: What about the “N (number of particles per unit volume of sampled air)” value of the same compound?
A: Its value is “(2.0 ± 0.3) × 10^4 cm^−3”.

Q: What about the “VML (volume median length)” value of the same compound?
A: The value was 2.0 ± 0.4 μm.

Q: And the “σD (geometric standard deviation for diameter)” value?
A: Its value is 1.5 ± 0.1.

Q: What about the “σL (geometric standard deviation for length)” value of the same compound?
A: Its value is 2.1 ± 0.1.
